pIC50: −log10 of the molar value.
Assay: Inhibition of influenza A virus H1N1 endonuclease (1 to 204 residues) expressed in Escherichia coli BL21 (RIL) using (6-FAM)-TGGCAATATCAGCTCCACA(MGBNFQ) single-stranded DNA probe by fluorimetry

Structure (SMILES)	pIC50
O=c1[nH]cc(-c2ccc(F)cc2)cc1O	6.14
O=c1[nH]c(-c2ccc(F)cc2)ccc1O	6.37
O=c1[nH]cc(-c2ccc(F)cc2)[nH]c1=O	4.23
O=c1[nH]cnc(-c2ccc(F)cc2)c1O	< 3.71
O=c1[nH]c(-c2ccc(F)cc2)ncc1O	6.24
O=c1[nH]c(-c2cccc(F)c2)ncc1O	5.81
O=c1[nH]c(-c2ccccc2F)ncc1O	5.78
O=c1[nH]c(-c2ccc(-c3ccccc3)cc2)ncc1O	5.65
O=c1[nH]c(-c2cccc(-c3ccccc3)c2)ncc1O	6.40
O=c1[nH]c(-c2ccccc2-c2ccccc2)ncc1O	5.96
N#Cc1ccc(-c2ncc(O)c(=O)[nH]2)cc1	6.28
N#Cc1cccc(-c2ncc(O)c(=O)[nH]2)c1	6.60
O=c1[nH]c(-c2ccc(-c3nnn[nH]3)cc2)ncc1O	6.82
O=c1[nH]c(-c2cccc(-c3nnn[nH]3)c2)ncc1O	6.32
O=c1[nH]ncc(-c2ccc(F)cc2)c1O	3.75
O=c1[nH]nc(-c2ccc(F)cc2)cc1O	5.22
N#Cc1ccc(-c2cc(O)c(=O)[nH]n2)cc1	5.03
O=c1[nH]nc(-c2ccc(-c3nnn[nH]3)cc2)cc1O	5.52

— ChEMBL document CHEMBL3351429, “Phenyl substituted 4-hydroxypyridazin-3(2H)-ones and 5-hydroxypyrimidin-4(3H)-ones: inhibitors of influenza A endonuclease” (J Med Chem, 2014)
